# Results as given in ChEMBL document CHEMBL3124908, “Design, synthesis, and evaluation of novel heteroaromatic analogs of curcumin as anti-cancer agents” (Eur J Med Chem, 2014).
# System: HeLa
# Test: Cytotoxicity against human HeLa cells after 5 days by trypan blue exclusion assay
# Format: functional, cell-based
# Details: 120 h
row,Structure (SMILES),IC50 [nM]
1,CCC(C)n1ccnc1/C=C/C(=O)/C=C/c1nccn1C(C)CC (centres undefined),62
2,CC(C)Cn1ccnc1/C=C/C(=O)/C=C/c1nccn1CC(C)C,390
3,Cc1cc(/C=C/C(=O)/C=C/c2cc(C)no2)on1,190
4,O=C(/C=C/c1ccccn1)/C=C/c1ccccn1,120
5,COc1cc(/C=C/C(=O)CC(=O)/C=C/c2ccc(O)c(OC)c2)ccc1O [CURCUMIN],12600

# System: A549
# Test: Cytotoxicity against human A549 cells after 5 days by trypan blue exclusion assay
# Format: functional, cell-based
# Details: A549, 120 h
row,Structure (SMILES),IC50 [nM]
1,CCC(C)n1ccnc1/C=C/C(=O)/C=C/c1nccn1C(C)CC (centres undefined),100
2,CC(C)Cn1ccnc1/C=C/C(=O)/C=C/c1nccn1CC(C)C,110
3,Cc1cc(/C=C/C(=O)/C=C/c2cc(C)no2)on1,160
4,O=C(/C=C/c1ccccn1)/C=C/c1ccccn1,51
5,COc1cc(/C=C/C(=O)CC(=O)/C=C/c2ccc(O)c(OC)c2)ccc1O [CURCUMIN],15000

# System: MDA-MB-231
# Test: Cytotoxicity against human MDA-MB-231 cells after 5 days by trypan blue exclusion assay
# Format: functional, cell-based
# Details: MDA-MB-231, 120 h
row,Structure (SMILES),IC50 [nM]
1,CCC(C)n1ccnc1/C=C/C(=O)/C=C/c1nccn1C(C)CC (centres undefined),130
2,CC(C)Cn1ccnc1/C=C/C(=O)/C=C/c1nccn1CC(C)C,150
3,Cc1cc(/C=C/C(=O)/C=C/c2cc(C)no2)on1,156
4,O=C(/C=C/c1ccccn1)/C=C/c1ccccn1,97
5,COc1cc(/C=C/C(=O)CC(=O)/C=C/c2ccc(O)c(OC)c2)ccc1O [CURCUMIN],880

# System: PC-3
# Test: Cytotoxicity against human PC3 cells after 5 days by trypan blue exclusion assay
# Format: functional, cell-based
# Details: PC-3, 120 h
row,Structure (SMILES),IC50 [nM]
1,Cn1ccnc1/C=C1\CCC/C(=C\c2nccn2C)C1=O,94
2,CN1C/C(=C\c2nccn2C)C(=O)/C(=C/c2nccn2C)C1,93
3,Cn1ccnc1/C=C/C(=O)/C=C/c1nccn1C,110
4,CC(C)n1ccnc1/C=C/C(=O)/C=C/c1nccn1C(C)C,89
5,CCC(C)n1ccnc1/C=C/C(=O)/C=C/c1nccn1C(C)CC (centres undefined),63
6,CC(C)Cn1ccnc1/C=C/C(=O)/C=C/c1nccn1CC(C)C,46
7,Cn1nccc1/C=C/C(=O)/C=C/c1ccnn1C,130
8,O=C(/C=C/c1nccs1)/C=C/c1nccs1,68
9,O=C(/C=C/c1cscn1)/C=C/c1cscn1,94
10,Cc1nc(/C=C/C(=O)/C=C/c2coc(C)n2)co1,840
11,Cc1cc(/C=C/C(=O)/C=C/c2cc(C)on2)no1,250
12,Cc1cc(/C=C/C(=O)/C=C/c2cc(C)no2)on1,41
13,O=C(/C=C/c1ccccn1)/C=C/c1ccccn1,33
14,CC(C)n1ccnc1/C=C1\CN(C)C/C(=C\c2nccn2C(C)C)C1=O,110
15,CCC(C)n1ccnc1/C=C1\CN(C)C/C(=C\c2nccn2C(C)CC)C1=O (centres undefined),6630
16,CN1C/C(=C\c2cnn(C)c2)C(=O)/C(=C/c2cnn(C)c2)C1,76000
17,CN1C/C(=C\c2ccnn2C)C(=O)/C(=C/c2ccnn2C)C1,1020

row,Structure (SMILES),IC50 [nM]
1,CN1C/C(=C\c2nccs2)C(=O)/C(=C/c2nccs2)C1,420
2,CN1C/C(=C\c2cscn2)C(=O)/C(=C/c2cscn2)C1,800
3,Cc1nc(/C=C2\CN(C)C/C(=C\c3coc(C)n3)C2=O)co1,310
4,Cc1cc(/C=C2\CN(C)C/C(=C\c3cc(C)on3)C2=O)no1,140
5,Cc1cc(/C=C2\CN(C)C/C(=C\c3cc(C)no3)C2=O)on1,130
6,CC(C)n1ccnc1/C=C1\CCC/C(=C\c2nccn2C(C)C)C1=O,160
7,CCC(C)n1ccnc1/C=C1\CCC/C(=C\c2nccn2C(C)CC)C1=O (centres undefined),830
8,CC(C)Cn1ccnc1/C=C1\CCC/C(=C\c2nccn2CC(C)C)C1=O,470
9,Cn1cc(/C=C2\CCC/C(=C\c3cnn(C)c3)C2=O)cn1,130000
10,Cn1nccc1/C=C1\CCC/C(=C\c2ccnn2C)C1=O,260
11,O=C1/C(=C/c2nccs2)CCC/C1=C\c1nccs1,110
12,O=C1/C(=C/c2cscn2)CCC/C1=C\c1cscn1,120
13,Cc1nc(/C=C2\CCC/C(=C\c3coc(C)n3)C2=O)co1,1970
14,Cc1cc(/C=C2\CCC/C(=C\c3cc(C)on3)C2=O)no1,71
15,Cc1cc(/C=C2\CCC/C(=C\c3cc(C)no3)C2=O)on1,54
16,COc1cc(/C=C/C(=O)CC(=O)/C=C/c2ccc(O)c(OC)c2)ccc1O [CURCUMIN],1980

# System: not listed separately
# Test: Cytotoxicity against human MCF10A cells up to 1 uM after 5 days by trypan blue exclusion assay
# Format: cell-based
# Details: mcf-10a, 120 h
row,Structure (SMILES),Activity
1,CCC(C)n1ccnc1/C=C/C(=O)/C=C/c1nccn1C(C)CC (centres undefined),Non-toxic
2,CC(C)Cn1ccnc1/C=C/C(=O)/C=C/c1nccn1CC(C)C,Non-toxic
3,Cc1cc(/C=C/C(=O)/C=C/c2cc(C)no2)on1,Non-toxic
4,O=C(/C=C/c1ccccn1)/C=C/c1ccccn1,Non-toxic

# System: DU-145
# Test: Cytotoxicity against human DU145 cells after 5 days by trypan blue exclusion assay
# Format: functional, cell-based
# Details: DU-145, 120 h
row,Structure (SMILES),IC50 [nM]
1,Cn1ccnc1/C=C1\CCC/C(=C\c2nccn2C)C1=O,630
2,CN1C/C(=C\c2nccn2C)C(=O)/C(=C/c2nccn2C)C1,130
3,Cn1ccnc1/C=C/C(=O)/C=C/c1nccn1C,57
4,CC(C)n1ccnc1/C=C/C(=O)/C=C/c1nccn1C(C)C,54
5,CCC(C)n1ccnc1/C=C/C(=O)/C=C/c1nccn1C(C)CC (centres undefined),35
6,CC(C)Cn1ccnc1/C=C/C(=O)/C=C/c1nccn1CC(C)C,57
7,Cn1nccc1/C=C/C(=O)/C=C/c1ccnn1C,160
8,O=C(/C=C/c1nccs1)/C=C/c1nccs1,55
9,O=C(/C=C/c1cscn1)/C=C/c1cscn1,96
10,Cc1nc(/C=C/C(=O)/C=C/c2coc(C)n2)co1,750
11,Cc1cc(/C=C/C(=O)/C=C/c2cc(C)on2)no1,42
12,Cc1cc(/C=C/C(=O)/C=C/c2cc(C)no2)on1,16
13,O=C(/C=C/c1ccccn1)/C=C/c1ccccn1,20
14,CC(C)n1ccnc1/C=C1\CN(C)C/C(=C\c2nccn2C(C)C)C1=O,140
15,CCC(C)n1ccnc1/C=C1\CN(C)C/C(=C\c2nccn2C(C)CC)C1=O (centres undefined),10
16,CN1C/C(=C\c2ccnn2C)C(=O)/C(=C/c2ccnn2C)C1,1640

row,Structure (SMILES),IC50 [nM]
1,CN1C/C(=C\c2nccs2)C(=O)/C(=C/c2nccs2)C1,46
2,CN1C/C(=C\c2cscn2)C(=O)/C(=C/c2cscn2)C1,430
3,Cc1nc(/C=C2\CN(C)C/C(=C\c3coc(C)n3)C2=O)co1,76
4,Cc1cc(/C=C2\CN(C)C/C(=C\c3cc(C)on3)C2=O)no1,34
5,Cc1cc(/C=C2\CN(C)C/C(=C\c3cc(C)no3)C2=O)on1,690
6,CC(C)n1ccnc1/C=C1\CCC/C(=C\c2nccn2C(C)C)C1=O,100
7,CCC(C)n1ccnc1/C=C1\CCC/C(=C\c2nccn2C(C)CC)C1=O (centres undefined),250
8,CC(C)Cn1ccnc1/C=C1\CCC/C(=C\c2nccn2CC(C)C)C1=O,360
9,Cn1cc(/C=C2\CCC/C(=C\c3cnn(C)c3)C2=O)cn1,90000
10,Cn1nccc1/C=C1\CCC/C(=C\c2ccnn2C)C1=O,730
11,O=C1/C(=C/c2nccs2)CCC/C1=C\c1nccs1,120
12,O=C1/C(=C/c2cscn2)CCC/C1=C\c1cscn1,75
13,Cc1nc(/C=C2\CCC/C(=C\c3coc(C)n3)C2=O)co1,1650
14,Cc1cc(/C=C2\CCC/C(=C\c3cc(C)on3)C2=O)no1,70
15,Cc1cc(/C=C2\CCC/C(=C\c3cc(C)no3)C2=O)on1,340
16,COc1cc(/C=C/C(=O)CC(=O)/C=C/c2ccc(O)c(OC)c2)ccc1O [CURCUMIN],300
